In patent publication US20100249172A1, “9-CHLORO NOSCAPINE AND ITS USE IN TREATING CANCERS, INCLUDING DRUG-RESISTANT CANCERS” (EMORY UNIVERSITY, priority 2007, published 2010):

Experiments:
[1] = test system: MCF-7 cells; assay: Cell cycle analysis by flow cytometry (propidium iodide); assay type: cell-based, human; conditions: for G0/G1 % / G2/M % / S % / Sub-G1 %: mean ± S.E.M.; for accumulation of cells in the G2/M phase (in words): 24 hours; for percent sub-G1 cells compared with noscapine: lower doses (5 μM and 10 μM), 72 hours
Method: The flow cytometric evaluation of the cell cycle status was performed as described previously. Briefly, 2×10^6 cells were centrifuged, washed twice with ice-cold PBS, and fixed in 70% ethanol. Tubes containing the cell pellets were stored at 4° C. for at least 24 hours. Cells were then centrifuged at 1000×g for 10 min and the supernatant was discarded. The pellets were washed twice with 5 ml of PBS and then stained with 0.5 ml of propidium iodide (0.1% in 0.6% Triton-X in PBS) and 0.5 ml of RNase A (2 mg/ml) for 45 minutes in dark. Samples were then analyzed on a FACSCalibur flow cytometer (Beckman Coulter Inc., Fullerton, Calif.).
To investigate the precise mechanisms of cell death, the effect of 9-cloro-noscapine and other halogenated noscapine analogs on percent G2/M cells (mitotic index) and percent sub-G1 cells (apoptotic index) was examined as a function of dose and time in MCF-7 cells using fluorescence activated cell sorting (FACS) analysis. The effect of all compounds including noscapine was evaluated at three doses-5 μM, 10 μM and 25 μM for 0, 24, 48 and 72 hours of drug treatment. […] Fluorescently labeled DNA is a good indicator of cell cycle progression and cell death. An unreplicated complement of diploid (2N) DNA cells represents the G1 phase while duplicated tetraploid (4N) DNA cells represent G2 and M phases. Cells in the process of DNA duplication between diploid and tetraploid peaks represent S phase when DNA is being synthesized. Less than diploid DNA appears in populations of dying cells that degrade their DNA to different extents. Treatment of MCF-7 cells with these compounds for 0, 24, 48 and 72 hours led to profound perturbations of the cell cycle profile at 25 μM (FIGS. 3 A-D). […] The distribution of cell population over G0/G1, S, G2/M and sub-G1 phases of the cell cycle for 25 μM concentration is shown in Table 1.

[2] = molecular target: tubulin; conditions: literature value [18]; read-out: dissociation constant (Kd) for binding to tubulin; cited from earlier work

Compound	G0/G1 % ([1]; 25 μM, 0 h)	G2/M % ([1]; 25 μM, 0 h)	S % ([1]; 25 μM, 0 h)	Sub-G1 % ([1]; 25 μM, 0 h)	G0/G1 % ([1]; 25 μM, 24 h)	G2/M % ([1]; 25 μM, 24 h)	S % ([1]; 25 μM, 24 h)	Sub-G1 % ([1]; 25 μM, 24 h)	accumulation of cells in the G2/M phase (in words) ([1]; 25 μM)	G0/G1 % ([1]; 25 μM, 48 h)	G2/M % ([1]; 25 μM, 48 h)	S % ([1]; 25 μM, 48 h)	Sub-G1 % ([1]; 25 μM, 48 h)	G0/G1 % ([1]; 25 μM, 72 h)	G2/M % ([1]; 25 μM, 72 h)	S % ([1]; 25 μM, 72 h)	Sub-G1 % ([1]; 25 μM, 72 h)	percent sub-G1 cells compared with noscapine [1]	Kd [2]	sub-G1 population compared with noscapine ([1]; 25 μM)
COc1ccc2c(c1OC)C(=O)O[C@@H]2[C@H]1c2c(c(F)c3c(c2OC)OCO3)CCN1C [9-F-nos]	67.7 ± 5.6%	18.5 ± 2.2%	11.9 ± 1.5%	0.2 ± 0.04%	10.8 ± 2.4%	65.9 ± 4.4%	3.8 ± 1.1%	6.8 ± 2.1%	massive accumulation of cells in the G2/M phase	7.9 ± 2.8%	43.7 ± 2.9%	3.5 ± 0.8%	34.5 ± 2.5%	5.2 ± 2.2%	34.4 ± 3.4%	3.6 ± 1.5%	48.6 ± 3.3%	higher	–	–
COc1ccc2c(c1OC)C(=O)O[C@@H]2[C@H]1c2c(cc3c(c2OC)OCO3)CCN1C [Nos, (S)-6,7-dimethoxy-3-((R)-4-methoxy-6-methyl-5,6,7,8-tetrahydro[1,3]-dioxolo-[4,5-g]isoquinolin-5-yl)isobenzo-furan-1(3H)-one, reference compound]	54.8 ± 0.03%	29.9 ± 2.2%	13.2 ± 0.2%	0.2 ± 0.03%	18.3 ± 3.3%	50.2 ± 3.6%	3.4 ± 0.8%	10.2 ± 1.2%	–	19.8 ± 1.9%	28.07 ± 0.2%	4.1 ± 0.6%	36.8 ± 3.7%	20.5 ± 0.2%	26.3 ± 0.2%	7.06 ± 0.2%	36.9 ± 0.2%	–	144 ± 2.8 µM	–
COc1ccc2c(c1OC)C(=O)O[C@@H]2[C@H]1c2c(c(I)c3c(c2OC)OCO3)CCN1C [9-I-nos]	60.6 ± 4.6%	23.1 ± 3.7%	13.9 ± 2.3%	0.3 ± 0.2%	17 ± 2.3%	44.5 ± 5.1%	3.1 ± 1.3%	7.7 ± 1.7%	–	15.4 ± 4.5%	25.9 ± 4.1%	2.9 ± 0.6%	28.1 ± 3.1%	17 ± 1.9%	20.7 ± 2.2%	4.9 ± 2.2%	30.1 ± 3.1%	–	–	slightly lower
COc1ccc2c(c1OC)C(=O)O[C@@H]2[C@H]1c2c(c(Br)c3c(c2OC)OCO3)CCN1C [9-Br-nos]	53.3 ± 2.8%	28.9 ± 4.4%	12.7 ± 1.8%	0.2 ± 0.1%	10.4 ± 1.8%	61.9 ± 3.6%	3.4 ± 1.2%	6.9 ± 2.4%	massive accumulation of cells in the G2/M phase	6.5 ± 2.5%	43.8 ± 3.4%	2.8 ± 0.7%	35.1 ± 3.5%	4.6 ± 2.1%	33.7 ± 3.5%	2.4 ± 1.6%	–	higher	–	–
